One assay has as its system 3DG. As to conditions: in vivo; cited from earlier work.
The subject of assay [1] is 3DG-dependent crosslinking of collagen type I. Description: Inhibition of 3DG collagen crosslinking in vitro (CnBr digest, SDS-PAGE). As to conditions: calf skin collagen type 1, 5 mM 3DG plus 10 mM arginine, 24 hr. It is filed as biochemical. The protocol:
The direct inactivation of 3DG is a method of reducing 3DG levels. Calf skin collagen type 1 (1.3 mg) was incubated with no addition, with 5 mM 3DG, or with 5 mM 3DG plus 10 mM of arginine for 24 hr. Each sample was digested with cyanogen bromide (CnBr) to create peptide fragments that are visualized by sodium-dodecyl sulfate-polyacrylamide gel electrophoresis (SDS-PAGE) (FIG. 4). Lane 2 is collagen alone; lane 3 is collagen plus 5 mM 3DG; and lane 4 is collagen plus 5 mM 3DG plus 10 mM arginine. Lanes 5, 6, and 7 are the same, but with twice as much sample applied.
Crosslinking was assessed by visually determining the amount of high molecular weight protein remaining near the origin of the resolving gel, as compared to the amount that migrates into the gel matrix. The more crosslinking that exists, the more material there is near the origin of the gel. The lanes containing collagen with 3DG (#3, #6) have more material residing at the origin than those containing collagen alone (#2, #5).

For the compound `N[C@@H](CCCCNC[C@H](O)[C@@H](O)[C@@H](O)[C@H](O)CO)C(=O)O` [galactitollysine], the “urinary or plasma 3DG” value with 3DG was “reduced”. As for `CNC[C@H](O)[C@@H](O)[C@H](O)[C@H](O)CO` [meglumine, N-methyl glucamine], the “urinary or plasma 3DG” value with 3DG was “reduced”. With `N[C@@H](CCCCNC[C@@H](O)[C@@H](O)[C@H](O)[C@H](O)CO)C(=O)O` [mannitollysine], the “urinary or plasma 3DG” value in the assay with 3DG is reported as “reduced”. For the compound `N[C@@H](CCCCNC[C@H](O)[C@@H](O)[C@H](O)[C@H](O)CO)C(=O)O` [sorbitollysine], the “urinary or plasma 3DG” value in the assay with 3DG is “reduced”. With `N=C(N)NCCC[C@H](N)C(=O)O` [arginine], the “3DG crosslinking of collagen (high molecular weight protein near gel origin, visual)” value in assay [1] was “able to inactivate 3DG and prevent it from crosslinking collagen”.
